The text below walks through data of ChEMBL document CHEMBL1137597, “Evolution of thiazolidine-based blockers of human Kv1.5 for the treatment of atrial arrhythmias” (Bioorg Med Chem Lett, 2007).

For data set [1], the target named is T1, Potassium voltage-gated channel subfamily A member 5 (Homo sapiens, UniProt P22460). The data set can be described thus: Inhibition of Kv1.5 mediated ultra-rapid delayed rectifier current Ikur in human atrial cells. It counts as functional, cell-based, Cardiac atrium.
T1 sequence (P22460 whole entry): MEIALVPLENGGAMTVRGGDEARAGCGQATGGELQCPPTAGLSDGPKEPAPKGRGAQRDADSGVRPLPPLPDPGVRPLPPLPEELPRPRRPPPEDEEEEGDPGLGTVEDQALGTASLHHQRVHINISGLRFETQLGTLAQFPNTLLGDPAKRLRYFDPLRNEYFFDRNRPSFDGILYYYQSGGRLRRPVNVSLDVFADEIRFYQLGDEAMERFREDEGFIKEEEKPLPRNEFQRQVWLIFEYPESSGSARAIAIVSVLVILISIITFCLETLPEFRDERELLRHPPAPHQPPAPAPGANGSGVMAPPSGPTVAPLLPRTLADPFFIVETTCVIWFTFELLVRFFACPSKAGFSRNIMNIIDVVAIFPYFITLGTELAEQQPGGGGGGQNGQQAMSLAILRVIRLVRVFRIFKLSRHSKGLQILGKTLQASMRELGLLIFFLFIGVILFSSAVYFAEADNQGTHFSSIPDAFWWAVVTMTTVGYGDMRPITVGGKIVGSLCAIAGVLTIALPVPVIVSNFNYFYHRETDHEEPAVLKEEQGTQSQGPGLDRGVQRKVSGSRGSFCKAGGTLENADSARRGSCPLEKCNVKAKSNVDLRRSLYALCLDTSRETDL
The target in data set [2] is T1, Potassium voltage-gated channel subfamily A member 5. The data set can be described thus: Inhibition of ultra-rapid delayed rectifier current Ikur in human atrial cells at 1uM. It counts as functional, cell-based. Conditions: Cardiac atrium.
Data set [3] in a line: Percent oxidation in rat S9 microsomal fraction. Type of data set: ADME. The conditions noted are these: read-out: Oxidation.

Structures are written as SMILES.

In the case of `COc1ccc(CON2C(=O)CSC2c2ccccc2)cc1` (stereo not drawn), in data set [1], half-maximal inhibition (IC50) required 924 nM. In other words, the sub-micromolar range.

For `COc1ccccc1CON1C(=O)CSC1c1ccc(Cl)c(Cl)c1` (stereo not drawn), the IC50 (usually the midpoint of a concentration-inhibition curve) in data set [1] was 204 nM.

In data set [1], `COc1ccc(CCN2C(=O)CSC23CCc2c(C)cccc23)cc1` (stereo not drawn) registered a concentration for half-maximal inhibition (IC50) of 487 nM. In addition, the inhibition (commonly the percentage by which the read-out fell short of the control) in data set [2] amounted to 61%.

Compound `COc1ccc(C2SCCN2C(=O)COc2ccccc2)cc1Cl` (stereo not drawn) registered an inhibition in data set [2] of 35%.

For the compound `O=C(COc1ccccc1)N1CCSC1c1ccc(C2CC2)cc1` (stereo not drawn), in data set [2], the inhibition was found to be 64%.

In turn, `COc1ccc(CON2C(=O)CSC2c2ccc(Cl)c(Cl)c2)cc1` (stereo not drawn) gave an IC50 in data set [1] of 113 nM. Further, the inhibition in data set [2] turned out to be 92%.

In turn, `Cc1ccc(C2SCCN2C(=O)OCc2ccccc2)cc1C` (stereo not drawn) gave an inhibition in data set [2] of 18%.

`O=C(COc1ccccc1)N1CCSC1c1ccc(Cl)c(Cl)c1` (stereo not drawn): the inhibition in data set [2] turned out to be 93%.

As for `Cc1ccc(C2SCCN2C(=O)CCc2ccccc2)cc1C` (stereo not drawn), the inhibition in data set [2] is 87%.

Turning to `COc1ccc(CC(=O)N2CCSC2c2ccc(Cl)c(Cl)c2)cc1` (stereo not drawn), the metabolised in data set [3] was determined as 100%.

With `O=C1CSC(c2ccc(Cl)c(Cl)c2)N1OCc1ccccc1` (stereo not drawn), inhibition in data set [1] was half-maximal at 463 nM (IC50). In data set [2], this compound displayed an inhibition of 77%.

On to `COc1ccc(CCN2C(=O)CSC23CCc2cc(Cl)ccc23)cc1` (stereo not drawn), for which it took 812 nM to reach half-maximal inhibition in data set [1] (IC50). The inhibition in data set [2] is 66%.

Regarding `COc1ccc(CCN2C(=O)CSC2(C)c2ccc(C)cc2)cc1` (stereo not drawn), it took 390 nM to reach half-maximal inhibition in data set [1] (IC50). In data set [2], this compound registered an inhibition of 88%.

As for `COc1cccc(CON2C(=O)CSC2c2ccc(Cl)cc2)c1` (stereo not drawn), the half-inhibitory concentration (IC50) in data set [1] came to 380 nM.

For the compound `Cc1ccc(C2SCC(=O)N2OCc2ccccc2)cc1C` (stereo not drawn), half-maximal inhibition in data set [1] (IC50) required 207 nM. Also, in data set [2], the inhibition amounted to 92%.

Regarding `COc1ccc(CCN2C(=O)CSC2(C)c2ccc(C)c(C)c2)cc1` (stereo not drawn), the IC50 in data set [1] turned out to be 69 nM. The compound also returned an inhibition in data set [2] of 96%.

For `COc1ccc(C2SCCN2C(=O)COc2ccccc2)cc1` (stereo not drawn), the inhibition in data set [2] is 72%.

In the case of `O=C1CSC(c2ccc(Cl)cc2)N1OCc1ccccc1` (stereo not drawn), the half-maximal inhibitory concentration (IC50) in data set [1] worked out at 997 nM. For the same compound, in data set [2], the inhibition is 35%.

`COc1cccc(CON2C(=O)CSC2c2ccc(C)c(C)c2)c1` (stereo not drawn) showed a half-maximal inhibitory concentration (IC50) in data set [1] of 269 nM. In data set [2], this compound yielded an inhibition of 75%.

In turn, `COc1ccc(CCC(=O)N2CCSC2c2ccc(C)c(C)c2)cc1` (stereo not drawn) showed a concentration for half-maximal inhibition (IC50) in data set [1] of 150 nM. Further, the inhibition in data set [2] turned out to be 89%.

On to `COc1ccccc1CON1C(=O)CSC1c1ccc(Cl)cc1` (stereo not drawn), for which, in data set [2], the inhibition is 25%.

Regarding `Cc1ccc(C2SCCN2C(=O)COc2ccccc2)cc1C` (stereo not drawn), the inhibition in data set [2] was determined as 95%.

In data set [2], `CN(C)c1ccc(C2SCCN2C(=O)COc2ccccc2)cc1` (stereo not drawn) returned an inhibition of 55%.

`COc1ccc(CCCC(=O)N2CCSC2c2ccc(C)c(C)c2)cc1` (stereo not drawn) gave an inhibition in data set [2] of 68%.

In turn, `COc1ccccc1CON1C(=O)CSC1c1ccc(C)c(C)c1` (stereo not drawn) came in with a concentration for half-maximal inhibition (IC50) in data set [1] of 177 nM. The inhibition in data set [2] was 92%.

The compound `COc1ccc(/C=C/C(=O)N2CCSC2c2ccc(C)c(C)c2)cc1` (stereo not drawn) came in with an inhibition in data set [2] of 92%.

In data set [1], `COc1ccc(CON2C(=O)CSC2c2ccc(C)c(C)c2)cc1` (stereo not drawn) had an IC50 of 95 nM. In other words, the double-digit nanomolar range.

For the compound `Cc1ccc(C2SCCN2C(=O)COc2ccccc2)cc1` (stereo not drawn), the inhibition in data set [2] is 80%.

In data set [1], `COc1ccc(CON2C(=O)CSC2c2ccc(Cl)cc2)cc1` (stereo not drawn) showed a 50% inhibitory concentration (IC50) of 187 nM. In other words, the sub-micromolar range.

As to `COc1ccc(CC(=O)N2CCSC2c2ccc(C)c(C)c2)cc1` (stereo not drawn), half-maximal inhibition in data set [1] (IC50) required 537 nM. This compound also gave an inhibition in data set [2] of 77%.

`COc1cccc(CON2C(=O)CSC2c2ccc(Cl)c(Cl)c2)c1` (stereo not drawn) showed a 50% inhibitory concentration (IC50) in data set [1] of 179 nM.
